Laboratory results published in patent US4026888A, “Certain derivatives of particular 3-thiolated cephalosporins” (priority 1976, dated 1977).
Values after ≈ are worked out from the molar mass of the structure shown. Like-named read-outs stand apart in the source and are kept apart here.

Legend:
Str. pyogenes A9604 = assay: Antibiotic activity in nutrient broth (MIC); format: cell-based; conditions: 45% AAB + 5% serum + 50% broth, derivatives adjusted for BL-S640 content
Description: (§1) Antibiotic Activity In Nutrient Broth
* 45% AAB+ 5% serum+ 50% broth listed above.
(§2) ** Dilution of overnight broth culture.
(§3) Antibiotic Spectrum Nutrient Broth
* 45% AAB + 5% serum + 50% broth
(§4) Antibiotic Spectrum in Nutrient Broth
*45% AAB + 5% serum + 50% broth listed above.

S. aureus Smith A9537 = assay: Antibiotic activity in nutrient broth (MIC); format: cell-based; conditions: + 50% serum, derivatives adjusted for BL-S640 content
Description: as §1, §2, §3, §4

Ent. cloacae A9657 = assay: Antibiotic activity in nutrient broth (MIC); format: cell-based; conditions: derivatives adjusted for BL-S640 content
Description: as §1, §2, §3, §4

K. pneumoniae A9977 [1] = assay: Antibiotic activity in nutrient broth (MIC); format: cell-based; conditions: Klebsiella pneumoniae, inoculum 10^-4, derivatives adjusted for BL-S640 content, read-out: MIC
Description: as §1, §2, §3, §4

S. aureus BX1633 A9606 = assay: Antibiotic activity in nutrient broth (MIC); format: cell-based; conditions: derivatives adjusted for BL-S640 content
Description: as §1, §2, §3, §4

K. pneumoniae A15130 = assay: Antibiotic activity in nutrient broth (MIC); format: cell-based; conditions: derivatives adjusted for BL-S640 content
Description: as §1, §2, §3, §4

E. coli A9675 = assay: Antibiotic activity in nutrient broth (MIC); format: cell-based; conditions: derivatives adjusted for BL-S640 content
Description: as §1, §2, §3, §4

E. coli Juhl A15119 = assay: Antibiotic activity in nutrient broth (MIC); format: cell-based; conditions: derivatives adjusted for BL-S640 content
Description: as §1, §2, §3, §4

Ent. cloacae A9656 = assay: Antibiotic activity in nutrient broth (MIC); format: cell-based; conditions: Enterobacter cloacae, derivatives adjusted for BL-S640 content
Description: as §1, §2, §3, §4

Ser. marcescens A20019 = assay: Antibiotic activity in nutrient broth (MIC); format: cell-based; conditions: Serratia marcescens, derivatives adjusted for BL-S640 content
Description: as §1, §2, §3, §4

Sal. enteritidis A9531 = assay: Antibiotic activity in nutrient broth (MIC); format: cell-based; conditions: inoculum 10^-4, derivatives adjusted for BL-S640 content
Description: as §1, §2, §3, §4

Pr. mirabilis A9900 = assay: Antibiotic activity in nutrient broth (MIC); format: cell-based; conditions: Proteus mirabilis, inoculum 10^-4, derivatives adjusted for BL-S640 content
Description: as §1, §2, §3, §4

Ent. cloacae A9659 = assay: Antibiotic activity in nutrient broth (MIC); format: cell-based; conditions: derivatives adjusted for BL-S640 content
Description: as §1, §2, §3, §4

Ps. aeruginosa A9843A = assay: Antibiotic activity in nutrient broth (MIC); format: cell-based; conditions: Pseudomonas aeruginosa
Description: as §1, §2, §3, §4

P. mirabilis A9900 [2] = assay: Oral PD50 in mice; format: in vivo; conditions: oral, mice treated at 1 and 3.5 hours post-challenge
[3] = Mouse blood levels after intramuscular administration; format: in vivo; conditions: IM 10 mg./kg.
Procedure: Mouse Blood Levels After Intramuscular Administration
of 10 mg./kg. Body Weight
The compounds were dissolved in 0.01% phosphate buffer.
Mouse Blood Levels After IM
Administration of 10 mg./kg. Body Weight
The compounds were prepared in 0.01% phosphate
The compounds were prepared in 0.01% phosphate buffer.

P. mirabilis A9707 = assay: Oral PD50 in mice; format: in vivo; conditions: Proteus mirabilis, mice treated at 1 and 3.5 hours post-challenge
Procedure: (§5) Comparative Oral PD50 Values of
(§6) BL-S640 Derivatives in Mice
(§7) *Mice were treated at 1 and 3.5 hours post-challenge.

K. pneumoniae A9977 [4] = assay: Oral PD50 in mice; format: in vivo; conditions: Klebsiella pneumoniae, A9977; oral; mice treated at 1 and 3.5 hours post-challenge; read-out: PD50
Procedure: as §5, §6, §7

S. pyogenes A9604 = assay: Oral PD50 in mice; format: in vivo; conditions: Streptococcus pyogenes, mice treated at 1 and 3.5 hours post-challenge
Procedure: as §5, §6, §7

E. coli A15119 = assay: Oral PD50 in mice; format: in vivo; conditions: Escherichia coli, A15119, po, 3.5 h, read-out: PD50
Procedure: as §5, §6, §7

P. mirabilis A9900 [5] = assay: IM PD50 in mice; format: in vivo; conditions: Proteus mirabilis
Description: Comparative IM PD50 Values of
as §6

[6] = mouse, blood, im, 10 mg/kg, Example 3, average of 3 experiments, read-out: Blood Levels
[7] = mouse, blood, im, 10 mg/kg, Table III, 0.01% phosphate buffer, read-out: Mouse Blood Levels

Compound: N[C@@H](C(=O)N[C@@H]1C(=O)N2C(C(=O)O)=C(CSc3cnn[nH]3)CS[C@H]12)c1ccc(O)cc1 [BL-S640, 7-[D-α-amino-α-(p-hydroxyphenyl)acetamido]-3-(1,2,3-triazol-5-ylthiomethyl)-3-cephem-4-carboxylic acid, reference compound]
- MIC (Str. pyogenes A9604; Streptococcus pyogenes, A9604, inoculum 10^-3, read-out: MIC): 0.06 µg/mL
- MIC (Str. pyogenes A9604; inoculum 10^-3): 0.03 µg/mL
- MIC (S. aureus Smith A9537; Staphylococcus aureus, SMITHA9537, inoculum 10^-4, read-out: MIC): 4 µg/mL
- MIC (S. aureus Smith A9537; inoculum 10^-4): 2 µg/mL
- MIC (Ent. cloacae A9657; Enterobacter cloacae, A9657, inoculum 10^-4, read-out: MIC): 1 µg/mL (≈ 2.16 µM)
- MIC (Ent. cloacae A9657; inoculum 10^-4): 0.5 µg/mL (≈ 1.08 µM)
- MIC (K. pneumoniae A9977 [1]): 0.5 µg/mL (≈ 1.08 µM)
- MIC (S. aureus BX1633 A9606; Staphylococcus aureus, BX1633A9606, inoculum 10^-2, read-out: MIC): 4 µg/mL (≈ 8.65 µM)
- MIC (S. aureus BX1633 A9606; inoculum 10^-2): 2 µg/mL (≈ 4.32 µM)
- MIC (K. pneumoniae A15130; Klebsiella pneumoniae, A15130, inoculum 10^-4, read-out: MIC): 2 µg/mL (≈ 4.32 µM)
- MIC (K. pneumoniae A15130; inoculum 10^-4): 1 µg/mL (≈ 2.16 µM)
- MIC (E. coli A9675; Escherichia coli, A9675, inoculum 10^-4, read-out: MIC): 4 µg/mL (≈ 8.65 µM)
- MIC (E. coli A9675; inoculum 10^-4): 2 µg/mL (≈ 4.32 µM)
- MIC (E. coli Juhl A15119; Escherichia coli, JUHLA15119, inoculum 10^-4, read-out: MIC): 1 µg/mL (≈ 2.16 µM)
- MIC (E. coli Juhl A15119; inoculum 10^-4): 0.5 µg/mL (≈ 1.08 µM)
- MIC (Ent. cloacae A9656; A9656, inoculum 10^-4): > 125 µg/mL
- MIC (Ent. cloacae A9656; A9656, inoculum 10^-4, read-out: MIC): 63 µg/mL (≈ 136 µM)
- MIC (Ser. marcescens A20019; A20019, inoculum 10^-4): > 125 µg/mL
- MIC (Ser. marcescens A20019; A20019, inoculum 10^-4, read-out: MIC): 63 µg/mL (≈ 136 µM)
- MIC (Sal. enteritidis A9531; Salmonella enterica, ENTERITIDIS, read-out: MIC): 0.25 µg/mL (≈ 0.541 µM)
- MIC (Sal. enteritidis A9531): 0.13 µg/mL (≈ 0.281 µM)
- MIC (Pr. mirabilis A9900): 0.5 µg/mL (≈ 1.08 µM)
- MIC (Ent. cloacae A9659; Enterobacter cloacae, A9659, inoculum 10^-4, read-out: MIC): 63 µg/mL (≈ 136 µM)
- MIC (Ent. cloacae A9659; inoculum 10^-4): 32 µg/mL (≈ 69.2 µM)
- MIC (Ps. aeruginosa A9843A): > 125 µg/mL
- ED50 (P. mirabilis A9900 [2]; Proteus mirabilis, A9900, po, 3.5 h, read-out: PD50): 7.2 mg/kg
- PD50 (P. mirabilis A9900 [2]): 9.6 mg./kg./treatment
- Blood Levels ([3]; Example 2, 1 hr, 0.01% phosphate buffer, 16 or 32 mice): 9500 ng/mL
- concentration at 0.25 h [3, 6]: 12700 ng/mL
- concentration at 0.5 h ([3]; mouse, blood, im, 10 mg/kg, Example 3, 0.5 hr, average of 3 experiments, read-out: Blood Levels): 11500 ng/mL
- concentration at 1 h ([3]; mouse, blood, im, 10 mg/kg, Example 3, 1 hr, average of 3 experiments, read-out: Blood Levels): 8000 ng/mL
- concentration at 1.5 h [3, 6]: 5700 ng/mL
- concentration at 0.25 h [3, 7]: 16300 ng/mL
- concentration at 1.5 h [3, 7]: 6300 ng/mL
- ED50 (P. mirabilis A9707): 2.4 mg/kg
- ED50 (K. pneumoniae A9977 [4]): 1.6 mg/kg
- ED50 (S. pyogenes A9604): 0.4 mg/kg
- ED50 (E. coli A15119; oral, mice treated at 1 and 3.5 hours post-challenge): 4.1 mg/kg
- ED50 (E. coli A15119): 1.4 mg/kg
- ED50 (P. mirabilis A9900 [5]): 1.6 mg/kg
